A word on the IC50: it is the point on the concentration scale where inhibition reaches its midpoint. Lower therefore signals higher potency.

SMILES strings stand for the structures.

In the test the target is T1, SHP2 (Homo sapiens, UniProt Q06124).
T1 sequence (Q06124 1-593): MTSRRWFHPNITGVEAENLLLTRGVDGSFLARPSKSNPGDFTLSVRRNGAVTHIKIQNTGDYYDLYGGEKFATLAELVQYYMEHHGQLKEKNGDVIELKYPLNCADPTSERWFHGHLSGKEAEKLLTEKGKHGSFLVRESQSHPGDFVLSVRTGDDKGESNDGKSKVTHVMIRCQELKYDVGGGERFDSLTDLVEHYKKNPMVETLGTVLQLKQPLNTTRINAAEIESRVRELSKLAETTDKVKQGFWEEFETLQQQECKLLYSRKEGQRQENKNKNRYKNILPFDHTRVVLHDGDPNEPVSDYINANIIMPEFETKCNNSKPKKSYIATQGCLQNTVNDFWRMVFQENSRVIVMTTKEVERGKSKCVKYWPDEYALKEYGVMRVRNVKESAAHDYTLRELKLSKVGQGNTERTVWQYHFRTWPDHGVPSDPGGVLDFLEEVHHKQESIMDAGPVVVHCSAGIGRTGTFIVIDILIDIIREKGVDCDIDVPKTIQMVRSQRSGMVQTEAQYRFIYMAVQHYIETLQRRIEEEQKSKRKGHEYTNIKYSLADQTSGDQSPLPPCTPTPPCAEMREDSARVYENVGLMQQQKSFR
Briefly: SHP2 allosteric inhibitor enzyme activity assay (DiFMUP fluorescence). Type of test: biochemical. The conditions noted are these: class symbols. From the text:
SHP2 is activated by the binding of a bis-tyrosyl-phosphorylated peptide to its Src homologous 2 (SH2) domain. This subsequent activation step leads to the release of the automatic inhibition interface of SHP2, which in turn activates the SHP2 protein tyrosine phosphatase (PTP) and can be used for substrate recognition and reaction catalysis. The catalytic activity of SHP2 was monitored using the alternative DiFMUP in a rapid fluorescence assay format.
Assay procedures are as follows:
(1) Compound Formulation:
The compound of the present invention (10 mM stock solution) was diluted to a suitable multiple with 100% DMSO and assay buffer, and the final test concentration of the compound of the present invention was 1 μM, 0.333 μM, 0.111 μM, 0.0370 μM, 0.0124 μM, 0.00412 μM, 0.00137 μM, 0.00046 μM, 0.00015 μM, 0.00 μM;
(2) Preparation of Enzyme Reaction Working Fluid:
SHP2 enzyme activity was performed using a final reaction volume of 50 μL and the following assay buffer conditions in 96-well black polystyrene plates (flat bottom, low flange, non-bonding surface) (Perki Elmer, Cat #6005270) at room temperature: 60 mM HEPES, 75 mM NaCl, 75 mM KCl, 0.05% BRIJ-35, 1 mM EDTA, 5 mM DTT.
(3) Enzyme Catalytic Reaction and Data Monitoring:
Compounds of the present invention were added to the corresponding 96-well plates, and no compound and enzyme were provided as blank test wells. SHP2 Activating Peptide (IRS1_pY1172 (dPEG8)pY1222) was placed on ice for melting, and 0.5 μM was added per well, then 0.2 ng SHP2 protein samples were added to corresponding well plates, and incubated at room temperature for 1 hour. Substrate DiFMUP (Invitrogen, Cat #D6567) was added to the reaction at room temperature for 1 hour. Fluorescence signals were monitored using an enzyme reader (Envision, Perki Elmer) using excitation wavelengths and emission wavelengths of 340 nm and 450 nm, respectively.
Inhibition %=[1−(Conversion_sample−Conversion_min)/(Conversion_max−Conversion_min)]*100% Calculation formula: […]
where: Conversion_sample is the mean reading of the sample wells; Conversion_min is the mean reading of blank control wells, representing the reading of the wells without enzyme; Conversion_max is the mean of positive control wells, representing the reading of the wells without inhibitor.
The dose-response curve is fitted with GraphPad Prism software and IC50 was calculated by the “log[inhibitor] vs. response-variable slope” program.
In turn, `N#Cc1ccc2c(c1)C(c1n[nH]c3nc(N4CCC5(CC4)Cc4ccccc4C5N)[nH]c(=O)c13)=CCC2(F)F` (stereo not shown) [Example 126] gave an IC50 not above 20 nM.

As to `N[C@@H]1c2ccccc2CC12CCN(c1nc3[nH]nc(C4=CNS(=O)(=O)c5ccccc54)c3c(=O)[nH]1)CC2` [Example 181, (S)-6-(1-amino-1,3-dihydrospiro[indene-2,4′-piperidin]-1′-yl)-3-(1,1-dioxido-2H-benzo[e][1,2]thiazin-4-yl)-1,5-dihydro-4H-pyrazolo[3,4-d]pyrimidin-4-one], the IC50 is not above 20 nM.

In turn, `COc1cccc(C2(c3n[nH]c4nc(N5CCC6(CC5)Cc5ccccc5[C@H]6N)[nH]c(=O)c34)CCC2)c1` [Example 95, (S)-6-(1-amino-1,3-dihydrospiro[indene-2,4′-piperidin]-1′-yl)-3-(1-(3-methoxyphenyl)cyclobutyl)-1,5-dihydro-4H-pyrazolo[3,4-d]pyrimidin-4-one] registered an IC50 not above 20 nM.

As for `C[C@@H]1OCC2(CCN(c3nc4[nH]nc(C5(c6cccs6)CC5)c4c(=O)[nH]3)CC2)[C@@H]1N` [Example 278, 6-((3S,4S)-4-amino-3-methyl-2-oxa-8-azaspiro[4.5]decan-8-yl)-3-(1-(thiophen-2-yl)cyclopropyl)-1,5-dihydro-4H-pyrazolo[3,4-d]pyrimidin-4-one], the IC50 was in the range of 20 to 60 nM.

Take `C[C@@H]1OCC2(CCN(c3nc4[nH]nc(C5(c6nc7ccccc7o6)CC5)c4c(=O)[nH]3)CC2)[C@@H]1N` [Example 284, 6-((3S,4S)-4-amino-3-methyl-2-oxa-8-azaspiro[4.5]decan-8-yl)-3-(1-(benzo[d]oxazol-2-yl)cyclopropyl)-1,5-dihydro-4H-pyrazolo[3,4-d]pyrimidin-4-one]: the IC50 lay within 20 to 60 nM.

As to `N[C@@H]1c2ccccc2CC12CCN(c1nc3[nH]nc(C4=CCC(F)(F)c5ncccc54)c3c(=O)[nH]1)CC2` [Example 169, (S)-6-(1-amino-1,3-dihydrospiro[indene-2,4′-piperidin]-1′-yl)-3-(8,8-difluoro-7,8-dihydroquinolin-5-yl)-1,5-dihydro-4H-pyrazolo[3,4-d]pyrimidin-4-one], the IC50 was not above 20 nM.

`Cc1cc2c(nn1)CC(C)(C)C=C2c1n[nH]c2nc(N3CCC4(CC3)Cc3ccccc3[C@H]4N)[nH]c(=O)c12` [Example 164, (S)-6-(1-amino-1,3-dihydrospiro[indene-2,4′-piperidin]-1′-yl)-3-(3,7,7-trimethyl-7,8-dihydrocinnolin-5-yl)-1,5-dihydro-4H-pyrazolo[3,4-d]pyrimidin-4-one] showed an IC50 not above 20 nM.

Turning to `N[C@@H]1c2ccccc2CC12CCN(c1nc3[nH]nc(C4(c5cocn5)CC4)c3c(=O)[nH]1)CC2` [Example 85, (S)-6-(1-amino-1,3-dihydrospiro[indene-2,4′-piperidin]-1′-yl)-3-(1-(oxazol-4-yl)cyclopropyl)-1,5-dihydro-4H-pyrazolo[3,4-d]pyrimidin-4-one], the IC50 is not above 20 nM.

For `C[C@@H]1OCC2(CCN(c3nc4[nH]nc(C5(c6ccc7c(c6)OCO7)CC5)c4c(=O)[nH]3)CC2)[C@@H]1N` [Example 286, 6-((3S,4S)-4-amino-3-methyl-2-oxa-8-azaspiro[4.5]decan-8-yl)-3-(1-(benzo[d][1,3]dioxol-5-yl)cyclopropyl)-1,5-dihydro-4H-pyrazolo[3,4-d]pyrimidin-4-one], the half-maximal inhibitory concentration (IC50) was in the range of 20 to 60 nM.

Regarding `CCOC(=O)Nc1ccc(C2(c3n[nH]c4nc(N5CCC6(CC5)CO[C@@H](C)[C@H]6N)[nH]c(=O)c34)CC2)cc1` [Example 303, ethyl(4-(1-(6-((3S,4S)-4-amino-3-methyl-2-oxa-8-azaspiro[4.5]decan-8-yl)-4-oxo-4,5-dihydro-1H-pyrazolo[3,4-d]pyrimidin-3-yl)cyclopropyl)phenyl)carbamate], the IC50 lay in the range of 20 to 60 nM.

Regarding `N[C@@H]1c2ccccc2CC12CCN(c1nc3[nH]nc(C4(c5cccc(-c6ccccc6)c5)CC4)c3c(=O)[nH]1)CC2` [Example 63, (S)-3-(1-([1,1′-biphenyl]-3-yl)cyclopropyl)-6-(1-amino-1,3-dihydrospiro[indene-2,4′-piperidin]-1′-yl)-1,5-dihydro-4H-pyrazolo[3,4-d]pyrimidin-4-one], the IC50 was not above 20 nM.

With `CN1CC=C(c2n[nH]c3nc(N4CCC5(CC4)Cc4ccccc4[C@H]5N)[nH]c(=O)c23)c2ccccc21` [Compound 178, (S)-6-(1-amino-1,3-dihydrospiro[indene-2,4′-piperidin]-1′-yl)-3-(1-methyl-1,2-dihydroquinolin-4-yl)-1,5-dihydro-4H-pyrazolo[3,4-d]pyrimidin-4-one, reference compound], the IC50 is not above 20 nM.

`N[C@@H]1c2ccccc2CC12CCN(c1nc3[nH]nc(C4=CCC(F)(F)c5ccccc54)c3c(=O)[nH]1)CC2` [Example 123, (S)-6-(1-amino-1,3-dihydrospiro[indene-2,4′-piperidin]-1′-yl)-3-(4,4-difluoro-3,4-dihydronaphtlialen-1-yl)-1,5-dihydro-4H-pyrazolo[3,4-d]pyrimidin-4-one] returned an IC50 not above 20 nM.

With `Nc1nccc(C2(c3n[nH]c4nc(N5CCC6(CC5)Cc5ccccc5[C@H]6N)[nH]c(=O)c34)CC2)c1F` [Example 59, (S)-6-(1-amino-1,3-dihydrospiro[indene-2,4′-piperidin]-1′-yl)-3-(1-(2-amino-3-fluoropyridin-4-yl)cyclopropyl)-1,5-dihydro-4H-pyrazolo[3,4-d]pyrimidin-4-one], the IC50 is not above 20 nM.

In turn, `N[C@@H]1c2ccccc2CC12CCN(c1nc3[nH]nc(C4=CCCc5occc54)c3c(=O)[nH]1)CC2` [Example 119, (S)-6-(1-amino-1,3-dihydrospiro[indene-2,4′-piperidin]-1′-yl)-3-(6,7-dihydrobenzofuran-4-yl)-1,5-dihydro-4H-pyrazolo[3,4-d]pyrimidin-4-one] gave an IC50 not above 20 nM.

With `N[C@@H]1c2ccccc2CC12CCN(c1cnc3c([C@H]4C[C@H]4c4ccccc4)n[nH]c3n1)CC2` [Example 106, (S)-1′-(3-((1S,2R)-2-phenylcyclopropyl)-1H-pyrazolo[3,4-b]pyrazin-6-yl)-1,3-dihydrospiro[indene-2,4′-piperidin]-1-amine], the IC50 is not above 20 nM.

For `CN1CC2(C=C(c3n[nH]c4nc(N5CCC6(CC5)Cc5ccccc5[C@H]6N)[nH]c(=O)c34)c3ccccc32)C1` [Example 171, (S)-6-(1-amino-1,3-dihydrospiro[indene-2,4′-piperidin]-1′-yl)-3-(1-methylspiro[azetidine-3,1′-inden]-3′-yl)-1,5-dihydro-4H-pyrazolo[3,4-d]pyrimidin-4-one], the IC50 was not above 20 nM.

Take `CC(=O)N1CC(F)(F)c2c1cccc2C1(c2n[nH]c3nc(N4CCC5(CC4)Cc4ccccc4[C@H]5N)[nH]c(=O)c23)CC1` [Example 60, (S)-3-(1-(1-acetyl-3,3-difluoroindolin-4-yl)cyclopropyl)-6-(1-amino-1,3-dihydrospiro[indene-2,4′-piperidin]-1′-yl)-1,5-dihydro-4H-pyrazolo[3,4-d]pyrimidin-4-one]: the IC50 was not above 20 nM.

As to `CC1(C)C=C(c2n[nH]c3nc(N4CCC5(CC4)Cc4ccccc4C5N)[nH]c(=O)c23)c2sc(N)nc2C1` (stereo not shown) [Example 130, 6-(1-amino-1,3-dihydrospiro[indene-2,4′-piperidin]-1′-yl)-3-(2-amino-5,5-dimethyl-4,5-dihydrobenzo[d]thiazol-7-yl)-1,5-dihydro-4H-pyrazolo[3,4-d]pyrimidin-4-one], the concentration for half-maximal inhibition (IC50) is 20 to 60 nM.

Source of the values: patent US20230192705A1, “SHP2 INHIBITORS, COMPOSITIONS AND USES THEREOF” (Betta Pharmaceuticals Co., Ltd, priority 2020, published 2023).
